{
  "source": "patent US6358885B1",
  "about": "“Substituted phenylheterocyclic herbicides” (Mississippi State University, priority 1992, dated 2002)",
  "key": {"bedstraw": {"test_system": "bedstraw", "assay": "Test B preemergence/postemergence greenhouse plant response rating 0 to 10", "assay_type": "in vivo, Galium aparine", "details": "for Plant response rating, Bedstraw: 0 to 10 scale", "summary_of_the_method": "(§1)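 Both application timings were run together: seeds got compound preemergence, and established seedlings (two to eighteen cm) got it postemergence. Non-phytotoxic solvent carried the chemical. Ratings are visual, versus controls, at twelve to sixteen days.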"}, "cheatgrass": {"test_system": "cheatgrass", "assay": "Test B preemergence/postemergence greenhouse plant response rating 0 to 10", "assay_type": "in vivo, Bromus secalinus", "details": "for Plant response rating, Cheatgrass: 0 to 10 scale", "summary_of_the_method": "as §1"}, "cocklebur": {"test_system": "cocklebur", "assay": "Test B preemergence/postemergence greenhouse plant response rating 0 to 10", "assay_type": "in vivo, Xanthium pensylvanicum", "details": "for Plant response rating, Cocklebur: 0 to 10 scale", "summary_of_the_method": "as §1"}, "cotton [1]": {"test_system": "cotton", "assay": "Test B preemergence/postemergence greenhouse plant response rating 0 to 10", "assay_type": "in vivo, Gossypium hirsutum", "details": "for Plant response rating, Cotton: 0 to 10 scale", "summary_of_the_method": "as §1"}, "crabgrass": {"test_system": "crabgrass", "assay": "Test B preemergence/postemergence greenhouse plant response rating 0 to 10", "assay_type": "in vivo, Digitaria spp.", "details": "for Plant response rating, Crabgrass: 0 to 10 scale", "summary_of_the_method": "as §1"}, "giant foxtail": {"test_system": "giant foxtail", "assay": "Test B preemergence/postemergence greenhouse plant response rating 0 to 10", "assay_type": "in vivo, Setaria faberii", "details": "for Plant response rating, Giant foxtail: 0 to 10 scale", "summary_of_the_method": "as §1"}, "morningglory": {"test_system": "morningglory", "assay": "Test B preemergence/postemergence greenhouse plant response rating 0 to 10", "assay_type": "in vivo, Ipomoea hederacea", "details": "for Plant response rating, Morningglory: 0 to 10 scale", "summary_of_the_method": "as §1"}, "rape": {"test_system": "rape", "assay": "Test B preemergence/postemergence greenhouse plant response rating 0 to 10", "assay_type": "in vivo, Brassica napus", "details": "for Plant response rating, Rape: 0 to 10 scale", "summary_of_the_method": "as §1"}, "barley": {"test_system": "barley", "assay": "Test C preemergence/postemergence greenhouse plant response rating 0 to 100", "assay_type": "in vivo, Hordeum vulgare", "details": "for Plant response rating Barley Igri: 125 g/ha, 0 to 100 scale", "summary_of_the_method": "(§2)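 Compounds in non-phytotoxic solvent went onto sandy loam before emergence (seeded one day earlier) or onto plants at the one-to-four leaf stage. Duck salad was treated via flood water (~2.5 cm, maintained) over silt loam.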"}, "chickweed": {"test_system": "chickweed", "assay": "Test C preemergence/postemergence greenhouse plant response rating 0 to 100", "assay_type": "in vivo, Stellaria media", "details": "for Plant response rating, Chickweed: 125 g/ha, 0 to 100 scale", "summary_of_the_method": "as §2"}, "cotton [2]": {"test_system": "cotton", "assay": "Test C preemergence/postemergence greenhouse plant response rating 0 to 100", "assay_type": "in vivo, Gossypium hirsutum", "details": "for Plant response rating, Cotton: 125 g/ha, 0 to 100 scale; for Plant response rating (0 to 100), Cotton: Rate 2 g/ha", "summary_of_the_method": "as §2"}},
  "data": [
    {"smiles": "COCOc1cc(-c2nn3c(c2Cl)CCCC3)c(F)cc1Cl", "note": "[Compound 58]", "values": [
      {"measurement": "Plant response rating, Bedstraw", "setting": "bedstraw; POSTEMERGENCE, Rate 50 g/ha", "result": 10},
      {"measurement": "Plant response rating, Bedstraw", "setting": "bedstraw; PREEMERGENCE, Rate 50 g/ha", "result": 6},
      {"measurement": "Plant response rating (0 to 10 scale), Bedstraw", "setting": "bedstraw; PREEMERGENCE, Rate 200 g/ha", "result": 9},
      {"measurement": "Plant response rating, Bedstraw", "setting": "bedstraw; Rate 200 g/ha, POSTEMERGENCE", "result": 9},
      {"measurement": "Plant response rating, Cheatgrass", "setting": "cheatgrass; POSTEMERGENCE, Rate 50 g/ha", "result": 7},
      {"measurement": "Plant response rating, Cheatgrass", "setting": "cheatgrass; PREEMERGENCE, Rate 50 g/ha", "result": 4},
      {"measurement": "Plant response rating (0 to 10 scale), Cheatgrass", "setting": "cheatgrass; PREEMERGENCE, Rate 200 g/ha", "result": 8},
      {"measurement": "Plant response rating, Cheatgrass", "setting": "cheatgrass; Rate 200 g/ha, POSTEMERGENCE", "result": 10},
      {"measurement": "Plant response rating, Cocklebur", "setting": "cocklebur; POSTEMERGENCE, Rate 50 g/ha", "result": 6},
      {"measurement": "Plant response rating, Cocklebur", "setting": "cocklebur; PREEMERGENCE, Rate 50 g/ha", "result": 0},
      {"measurement": "Plant response rating (0 to 10 scale), Cocklebur", "setting": "cocklebur; PREEMERGENCE, Rate 200 g/ha", "result": 9},
      {"measurement": "Plant response rating, Cocklebur", "setting": "cocklebur; Rate 200 g/ha, POSTEMERGENCE", "result": 10},
      {"measurement": "Plant response rating, Cotton", "setting": "cotton [1]; POSTEMERGENCE, Rate 50 g/ha", "result": 10},
      {"measurement": "Plant response rating, Cotton", "setting": "cotton [1]; PREEMERGENCE, Rate 50 g/ha", "result": 0},
      {"measurement": "Plant response rating (0 to 10 scale), Cotton", "setting": "cotton [1]; PREEMERGENCE, Rate 200 g/ha", "result": 0},
      {"measurement": "Plant response rating, Cotton", "setting": "cotton [1]; Rate 200 g/ha, POSTEMERGENCE", "result": 10},
      {"measurement": "Plant response rating, Crabgrass", "setting": "crabgrass; POSTEMERGENCE, Rate 50 g/ha", "result": 3},
      {"measurement": "Plant response rating, Crabgrass", "setting": "crabgrass; PREEMERGENCE, Rate 50 g/ha", "result": 0},
      {"measurement": "Plant response rating (0 to 10 scale), Crabgrass", "setting": "crabgrass; PREEMERGENCE, Rate 200 g/ha", "result": 9},
      {"measurement": "Plant response rating, Crabgrass", "setting": "crabgrass; Rate 200 g/ha, POSTEMERGENCE", "result": 3},
      {"measurement": "Plant response rating, Giant foxtail", "setting": "giant foxtail; POSTEMERGENCE, Rate 50 g/ha", "result": 6},
      {"measurement": "Plant response rating, Giant foxtail", "setting": "giant foxtail; PREEMERGENCE, Rate 50 g/ha", "result": 9},
      {"measurement": "Plant response rating (0 to 10 scale), Giant foxtail", "setting": "giant foxtail; PREEMERGENCE, Rate 200 g/ha", "result": 10},
      {"measurement": "Plant response rating, Giant foxtail", "setting": "giant foxtail; Rate 200 g/ha, POSTEMERGENCE", "result": 6},
      {"measurement": "Plant response rating, Morningglory", "setting": "morningglory; POSTEMERGENCE, Rate 50 g/ha", "result": 9},
      {"measurement": "Plant response rating, Morningglory", "setting": "morningglory; PREEMERGENCE, Rate 50 g/ha", "result": 4},
      {"measurement": "Plant response rating (0 to 10 scale), Morningglory", "setting": "morningglory; PREEMERGENCE, Rate 200 g/ha", "result": 4},
      {"measurement": "Plant response rating, Morningglory", "setting": "morningglory; Rate 200 g/ha, POSTEMERGENCE", "result": 10},
      {"measurement": "Plant response rating, Rape", "setting": "rape; POSTEMERGENCE, Rate 50 g/ha", "result": 9},
      {"measurement": "Plant response rating, Rape", "setting": "rape; PREEMERGENCE, Rate 50 g/ha", "result": 5},
      {"measurement": "Plant response rating (0 to 10 scale), Rape", "setting": "rape; PREEMERGENCE, Rate 200 g/ha", "result": 5},
      {"measurement": "Plant response rating, Rape", "setting": "rape; Rate 200 g/ha, POSTEMERGENCE", "result": 10},
      {"measurement": "Plant response rating Barley Igri", "setting": "barley; POSTEMERGENCE", "result": 60},
      {"measurement": "Plant response rating (0 to 100), Barley Igri", "setting": "barley; POSTEMERGENCE, Rate 2 g/ha", "result": 30},
      {"measurement": "Plant response rating Barley Igri", "setting": "barley; PREEMERGENCE", "result": 30},
      {"measurement": "Plant response rating (0 to 100), Barley Igri", "setting": "barley; PREEMERGENCE, Rate 2 g/ha", "result": 0},
      {"measurement": "Plant response rating (0 to 100), Barley Igri", "setting": "barley; Rate 8 g/ha, POSTEMERGENCE", "result": 40},
      {"measurement": "Plant response rating (0 to 100), Barley Igri", "setting": "barley; Rate 8 g/ha, PREEMERGENCE", "result": 0},
      {"measurement": "Plant response rating (0 to 100), Barley Igri", "setting": "barley; Rate 31 g/ha, POSTEMERGENCE", "result": 50},
      {"measurement": "Plant response rating (0 to 100), Barley Igri", "setting": "barley; Rate 31 g/ha, PREEMERGENCE", "result": 0},
      {"measurement": "Plant response rating, Chickweed", "setting": "chickweed; POSTEMERGENCE", "result": 100},
      {"measurement": "Plant response rating (0 to 100), Chickweed", "setting": "chickweed; POSTEMERGENCE, Rate 2 g/ha", "result": 20},
      {"measurement": "Plant response rating, Chickweed", "setting": "chickweed; PREEMERGENCE", "result": 70},
      {"measurement": "Plant response rating (0 to 100), Chickweed", "setting": "chickweed; PREEMERGENCE, Rate 2 g/ha", "result": 10},
      {"measurement": "Plant response rating (0 to 100), Chickweed", "setting": "chickweed; Rate 8 g/ha, POSTEMERGENCE", "result": 70},
      {"measurement": "Plant response rating (0 to 100), Chickweed", "setting": "chickweed; Rate 31 g/ha, POSTEMERGENCE", "result": 100},
      {"measurement": "Plant response rating (0 to 100), Chickweed", "setting": "chickweed; Rate 31 g/ha, PREEMERGENCE", "result": 10},
      {"measurement": "Plant response rating, Cotton", "setting": "cotton [2]; POSTEMERGENCE", "result": 100},
      {"measurement": "Plant response rating (0 to 100), Cotton", "setting": "cotton [2]; POSTEMERGENCE", "result": 95},
      {"measurement": "Plant response rating, Cotton", "setting": "cotton [2]; PREEMERGENCE", "result": 40},
      {"measurement": "Plant response rating (0 to 100), Cotton", "setting": "cotton [2]; PREEMERGENCE", "result": 0}
    ]}
  ]
}
